# Laboratory results taken from patent publication US9302999B2, “Substituted triazoles as herbicides” (E. I. DU PONT DE NEMOURS AND COMPANY, priority 2012, dated 2016).
# What was measured:
# Assay type in all cases: in vivo
# rice (Oryza sativa) = assay: Test B flooded paddy: rice; conditions: Flood; 250 g ai/ha; applied to paddy water at 2-leaf stage; visually evaluated after 13 to 15 days
# In short: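 Response scored visually, 0–100 relative to controls, 13–15 days after the compound was applied into paddy water; plants were at the 2-leaf stage in pots kept flooded to 3 cm.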
# [1] = test system: nightshade (eastern black nightshade, Solanum ptycanthum); assay: Test C pre-/postemergence: nightshade; conditions: Preemergence
# In short: (§1)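 Preemergence on seeds in loam/sand, postemergence on 2–18 cm (1–4-leaf) plants in peat-based medium; compounds in non-phytotoxic solvent with surfactant. After 13–15 days in greenhouse, visual rating versus controls, 0 (no effect) to 100 (complete control).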
# [2] = test system: woolly cupgrass (Eriochloa villosa); assay: Test C pre-/postemergence: woolly cupgrass
# In short: as §1
# [3] = test system: bromegrass, downy (downy bromegrass, Bromus tectorum); assay: Test C pre-/postemergence: bromegrass, downy
# In short: as §1
# [4] = test system: speedwell (bird's-eye speedwell, Veronica persica); assay: Test D pre-/postemergence: speedwell
# In short: (§2)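 Visual control ratings (0–100) after 14–21 days, controlled environment. Preemergence on silt loam; postemergence on 2–18 cm plants.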
# [5] = test system: buckwheat, wild (wild buckwheat, Polygonum convolvulus); assay: Test D pre-/postemergence: buckwheat, wild
# In short: as §2
# [6] = test system: cocklebur (common cocklebur, Xanthium strumarium); assay: Test C pre-/postemergence: cocklebur
# In short: as §1
# [7] = test system: bromegrass, downy (downy bromegrass, Bromus tectorum); assay: Test D pre-/postemergence: bromegrass, downy
# In short: as §2
# [8] = Postemergence, 31 g ai/ha, scale 0 to 100 (0 no effect, 100 complete control)
# [9] = Postemergence, 62 g ai/ha, scale 0 to 100 (0 no effect, 100 complete control)
# [10] = Postemergence, 125 g ai/ha, scale 0 to 100, 0 no effect, 100 complete control
# [11] = Postemergence, 250 g ai/ha, scale 0 to 100
# [12] = Preemergence, 31 g ai/ha, scale 0 (no effect) to 100 (complete control)
# [13] = Preemergence, 62 g ai/ha, scale of 0 to 100, 0 is no effect, 100 is complete control
# [14] = Preemergence, 125 g ai/ha, scale 0 to 100, 0 no effect, 100 complete control
# [15] = Preemergence, 250 g ai/ha, scale 0 to 100, 0 no effect, 100 complete control
# [16] = Postemergence, 250 g ai/ha, scale 0 to 100 (0 no effect, 100 complete control)
# [17] = Postemergence, 16 g ai/ha, scale 0 to 100
# [18] = Preemergence, 16 g ai/ha, scale 0 to 100 (0 no effect, 100 complete control)
# [19] = Preemergence, 31 g ai/ha, scale 0 to 100 (0 no effect, 100 complete control)
# [20] = Preemergence, 62 g ai/ha, scale 0 to 100
# [21] = Preemergence, 125 g ai/ha, scale 0 to 100
# [22] = Preemergence, 250 g ai/ha, scale 0 to 100
compound,measurement,setting,value
CCOc1nn(-c2ccc(F)cc2)nc1Cc1ccnc(C(F)F)c1 [Compound 195],"Plant response rating, Rice (0 to 100 scale, 0 is no effect, 100 is complete control)",rice (Oryza sativa),60
same,"Plant response rating, Nightshade","[1]; 31 g ai/ha, scale 0 (no effect) to 100 (complete control)",60
same,"Plant response rating, Nightshade","[1]; 62 g ai/ha, scale of 0 to 100, 0 is no effect, 100 is complete control",85
same,"Plant response rating, Nightshade","[1]; 125 g ai/ha, scale 0 to 100, 0 no effect, 100 complete control",95
same,"Plant response rating, Nightshade","[1]; 250 g ai/ha, scale 0 to 100, 0 no effect, 100 complete control",98
same,"Plant response rating, Cupgrass, Woolly",[2]; [8],50
same,"Plant response rating, Cupgrass, Woolly",[2]; [9],65
same,"Plant response rating, Cupgrass, Woolly",[2]; [10],75
same,"Plant response rating, Cupgrass, Woolly",[2]; [11],75
same,"Plant response rating, Cupgrass, Woolly",[2]; [12],20
same,"Plant response rating, Cupgrass, Woolly",[2]; [13],95
same,"Plant response rating, Cupgrass, Woolly",[2]; [14],95
same,"Plant response rating, Cupgrass, Woolly",[2]; [15],98
same,"Plant response rating, Bromegrass, Downy",[3]; [8],15
same,"Plant response rating, Bromegrass, Downy",[3]; [9],30
same,"Plant response rating, Bromegrass, Downy",[3]; [10],50
same,"Plant response rating, Bromegrass, Downy",[3]; [11],60
same,"Plant response rating, Bromegrass, Downy",[3]; [12],15
same,"Plant response rating, Bromegrass, Downy",[3]; [13],45
same,"Plant response rating, Bromegrass, Downy",[3]; [14],85
same,"Plant response rating, Bromegrass, Downy",[3]; [15],90
same,Plant response rating: Speedwell,[4]; [8],100
same,Plant response rating: Speedwell,[4]; [9],100
same,Plant response rating: Speedwell,[4]; [10],100
same,Plant response rating: Speedwell,[4]; [16],100
same,"Plant response rating, Speedwell",[4]; [17],100
same,"Plant response rating, Speedwell",[4]; [18],30
same,"Plant response rating, Speedwell",[4]; [19],100
same,"Plant response rating, Speedwell",[4]; [20],100
same,"Plant response rating, Speedwell",[4]; [21],100
same,"Plant response rating, Speedwell",[4]; [22],100
same,"Plant response rating: Buckwheat, Wild",[5]; [8],20
same,"Plant response rating: Buckwheat, Wild",[5]; [9],30
same,"Plant response rating: Buckwheat, Wild",[5]; [10],35
same,"Plant response rating: Buckwheat, Wild",[5]; [16],65
same,"Plant response rating, Buckwheat, Wild",[5]; [17],15
same,"Plant response rating, Buckwheat, Wild",[5]; [18],0
same,"Plant response rating, Buckwheat, Wild",[5]; [19],0
same,"Plant response rating, Buckwheat, Wild",[5]; [20],20
same,"Plant response rating, Buckwheat, Wild",[5]; [21],20
same,"Plant response rating, Buckwheat, Wild",[5]; [22],40
same,"Plant response rating, Cocklebur",[6]; [11],50
same,"Plant response rating, Cocklebur",[6]; [14],0
same,"Plant response rating: Bromegrass, Downy",[7]; [8],15
same,"Plant response rating: Bromegrass, Downy",[7]; [9],20
same,"Plant response rating: Bromegrass, Downy",[7]; [10],35
same,"Plant response rating: Bromegrass, Downy",[7]; [16],40
same,"Plant response rating, Bromegrass, Downy",[7]; [17],5
same,"Plant response rating, Bromegrass, Downy",[7]; [18],0
same,"Plant response rating, Bromegrass, Downy",[7]; [19],0
same,"Plant response rating, Bromegrass, Downy",[7]; [20],25
same,"Plant response rating, Bromegrass, Downy",[7]; [21],35
same,"Plant response rating, Bromegrass, Downy",[7]; [22],50
